target: T1, HPK1 (Homo sapiens, UniProt Q92918); assay: HPK1 biochemical enzyme assay (microfluidic mobility shift); details: 1.5 nM HPK1 (Invitrogen), 1 mM ATP, 30 min preincubation, 60 min at RT, Caliper EZ Reader
T1 construct: purchased Invitrogen
Experimental: HPK1 biochemical enzyme assay: HPK1 enzyme inhibition was measured using a microfluidic mobility shift assay. Reactions were performed in a 384-well plate, containing 1.5 nM HPK1 (Invitrogen), in assay buffer (Cama Biosciences; pH 7.4). Test compounds were titrated in ten point curves (top final assay concentration 3 μM), and preincubated with enzyme/substrate mix for 30 min prior to initiation of the reaction by addition of ATP (1 mM final concentration) and substrate (1 μM final concentration; Carna Biosciences) diluted in assay buffer supplemented by MgCl2 (final assay concentration of 5 mM). Following 60 min incubation at RT, the reaction was terminated by addition of 60 μl/well termination buffer (Carna Biosciences) and signal determination using a Caliper EZ Reader (Perkin Elmer, UK).

T1 sequence (Q92918 whole entry): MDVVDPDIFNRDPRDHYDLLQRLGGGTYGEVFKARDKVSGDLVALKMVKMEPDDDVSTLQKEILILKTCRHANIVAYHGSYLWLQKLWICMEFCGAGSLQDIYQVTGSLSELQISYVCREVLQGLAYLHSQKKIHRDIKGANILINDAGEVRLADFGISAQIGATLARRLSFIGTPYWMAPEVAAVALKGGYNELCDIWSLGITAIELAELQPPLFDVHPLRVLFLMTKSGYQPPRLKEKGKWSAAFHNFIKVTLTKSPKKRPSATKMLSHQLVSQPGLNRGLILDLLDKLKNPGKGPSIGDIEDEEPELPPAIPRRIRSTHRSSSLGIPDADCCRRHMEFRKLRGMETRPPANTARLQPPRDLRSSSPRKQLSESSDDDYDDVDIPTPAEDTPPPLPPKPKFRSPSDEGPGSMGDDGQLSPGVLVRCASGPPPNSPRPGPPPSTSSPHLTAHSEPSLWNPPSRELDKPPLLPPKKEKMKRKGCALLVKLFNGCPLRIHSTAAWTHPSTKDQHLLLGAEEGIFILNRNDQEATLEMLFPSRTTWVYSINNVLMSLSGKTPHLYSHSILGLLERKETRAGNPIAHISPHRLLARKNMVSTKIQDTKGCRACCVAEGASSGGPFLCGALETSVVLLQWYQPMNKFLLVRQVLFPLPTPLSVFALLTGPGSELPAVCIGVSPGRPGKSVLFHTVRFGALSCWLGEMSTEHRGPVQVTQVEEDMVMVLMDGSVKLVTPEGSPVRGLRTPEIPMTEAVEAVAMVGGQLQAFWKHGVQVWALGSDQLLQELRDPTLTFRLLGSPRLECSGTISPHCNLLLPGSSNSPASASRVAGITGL

`CO[C@@]1(c2ccc(Nc3ccc(-c4cnc5cc(F)ccn45)c4c3C(=O)NC4)nc2CN(C)C)CCOC1` (single isomer, unassigned) [Compound I-20] and `CO[C@]1(c2ccc(Nc3ccc(-c4cnc5cc(F)ccn45)c4c3C(=O)NC4)nc2CN(C)C)CCOC1` (single isomer, unassigned) [Compound I-21] cannot be ordered by IC50: ≤ 100 nM for the first, ≤ 100 nM for the second.

`CN(C)Cc1nc(Nc2ccc(-c3cnc4cc(F)ccn34)c3c2C(=O)NC3)ccc1C(C)(C)N1CCOCC1=O` [Compound I-25] and `CO[C@H]1C[C@H](Oc2ccc(Nc3ccc(-c4cnc5cc(F)ccn45)c4c3C(=O)NC4)nc2CN(C)C)C1` [Compound I-19] cannot be ordered by IC50: ≤ 100 nM for the first, ≤ 100 nM for the second.

`C[C@@H](OC1CCC1)c1ccc(Nc2ccc(-c3cnc4cnccn34)c3c2C(=O)NC3)nc1CN(C)C` [Compound I-29] and `Cc1cncc2ncc(-c3ccc(Nc4ccc([C@@H]5CCOC5)c(CN(C)C)n4)c4c3CNC4=O)n12` (single isomer, unassigned) [Compound I-27] cannot be ordered by IC50: ≤ 100 nM for the first, ≤ 100 nM for the second.

`CN(C)Cc1nc(Nc2ccc(-c3cnc4cc(C#N)ccn34)c3c2C(=O)NC3)ccc1C1CCOC1` (stereo not shown) [Compound I-47, 3-[7-[[6-[(dimethylamino)methyl]-5-tetrahydrofuran-3-yl-2-pyridyl]amino]-1-oxo-isoindolin-4-yl]imidazo[1,2-a]pyridine-7-carbonitrile] and `C[C@@H](c1nc(Nc2ccc(-c3cnc4cc(F)ccn34)c3c2C(=O)NC3)ccc1C1CCOCC1)N(C)C` [Compound I-8, (S)-7-((6-(1-(dimethylamino)ethyl)-5-(tetrahydro-2H-pyran-4-yl)pyridin-2-yl)amino)-4-(7-fluoroimidazo[1,2-a]pyridin-3-yl)isoindolin-1-one] cannot be ordered by IC50: ≤ 100 nM for the first, ≤ 100 nM for the second.

`CN1CCN(C(=O)[C@H]2CCOC2)c2ccc(Nc3ccc(-c4cnc5cc(F)ccn45)c4c3C(=O)NC4)nc2C1` (single isomer, unassigned) [Compound I-18] and `CN(C)Cc1cc(C2CCOCC2)cc(Nc2ccc(-c3cnc4cc(F)ccn34)c3c2C(=O)NC3)n1` [Compound I-39, 7-((6-((dimethylamino)methyl)-4-(tetrahydro-2H-pyran-4-yl)pyridin-2-yl)amino)-4-(7-fluoroimidazo[1,2-a]pyridin-3-yl)isoindolin-1-one] cannot be ordered by IC50: 100 to 1000 nM for the first, ≤ 100 nM for the second.
